Assay results published in patent publication US8461205B2, “Anthranilic acid derivatives” (Chelsea Therapeutics, Inc., priority 2007, dated 2013).

How the values were obtained:
[1] = Metabolic stability in human liver microsomes; type: in vitro ADME; conditions: human liver microsomes, 0.5 μM compound, 1 mg/mL protein, 1 mM NADPH, pH 7.4, 37° C.; "stable" = no degradation could be confirmed
Method: The metabolic stability of the test compounds was determined using human liver microsomes. Incubations were performed with a compound concentration of 0.5 μM and a protein concentration of 1 mg/mL in 50 mM sodium phosphate buffer at physiological pH (7.4) and temperature (37° C.). The incubation mixture was preincubated at 37° C. prior to addition of NADPH (1 mM, final concentration). At several time points during 60 minutes, aliquots were removed and added to a 96 well plate placed on dry ice and deep-frozen. Samples were analyzed with LC-MS for concentration of parent compound. From the slope of the log [parent compound] vs. incubation time regression line, the in vitro half-life […] was determined. The intrinsic clearance (CLint) can be calculated using a modified Michaelis-Menten relationship, i.e., CLint=ln 2/t1/2. The CLint can then be converted to CL by using the well-stirred model of hepatic extraction. A value of 1.24 L/h/kg of the hepatic blood flow in man can be used. Results with respect to a number of compounds of the invention are reported as t1/2 (in minutes) in Table 1.
(§1) The inhibition of T cell proliferation was studied in a human T lymphoblast cell line (Jurkat). The IC50 value for each compound was calculated from the dose response curve. Adding uridine was used to monitor the specificity of the DHODH mechanism. The metabolic stability was studied in human liver microsomes. Table 1 exemplifies the invention, without limiting the scope thereof.

[2] = test system: human T lymphoblast cell line (Jurkat); experiment: Inhibition of T-cell proliferation (Jurkat, 3H-TdR incorporation); type: cell-based; conditions: for IC50: Homo sapiens, Jurkat cells, 3 days culture, 3H-TdR pulse last 4 hours
Method: Inhibition of T cell proliferation was studied in a functional assay. A human T lymphoblast cell line (Jurkat) was cultured in the presence and absence, respectively, of DHODH inhibiting compounds. Jurkat cells were seeded in microtiterplates at a concentration of 5×10^5/mL in RPMI 1640 growth media supplemented with ultraglutamin, 10% fetal calf serum, 1 mM sodium pyruvat, 10 mM HEPES and 0.1 mg/mL gentamycin. A dilution series of ten different concentrations of inhibitor was added to the wells and the plates were kept in a cell incubator for 3 days. At the beginning of the last 4 hours period, the cultures were pulsed with 10 μl/well 0.1 Ci/mmol 3H-TdR and then harvested on filter papers and counted with a ([…]. The IC50 values for each compound were calculated from the obtained dose response curves. Adding uridine to a concentration of about 50 μM in the wells monitored the specificity for the mechanism i.e., the inhibition of cell proliferation is due to DHODH inhibition and not to a general cell toxicity of the compounds. This addition of uridine reverses the anti-proliferative effect by bypassing the DHODH enzyme using an external source of pyrimidine. Results in respect of a number of compounds of the invention are reported as Jurkat IC50 (in μM) in Table 1.
as §1

| SMILES | t1/2 [1] | IC50 [2] | half-life at 0.5 μM [1] | inhibitory effect on T-cell proliferation (in words) ([2]; Jurkat, cf. Table 1) |
| --- | --- | --- | --- | --- |
| CCC(=O)Nc1ccc(COc2ccc(C(F)(F)F)cc2C(F)(F)F)cc1C(=O)O [INV 1, 5-(2,4-Bis-trifluoromethyl-phenoxymethyl)-2-propionylamino-benzoic acid] | stable | 600 nM | – | – |
| CCC(=O)Nc1ccc(COc2ccc(F)cc2Cl)cc1C(=O)O [INV 5, 5-(2-Chloro-4-fluoro-phenoxymethyl)-2-propionylamino-benzoic acid] | – | 190 nM | 5.38 h | – |
| CCC(=O)Nc1ccc(COc2ccc(Cl)cc2Cl)cc1C(=O)O [INV 6, 5-(2,4-Dichloro-phenoxymethyl)-2-propionylamino-benzoic acid] | – | 350 nM | 3.32 h | – |
| CCC(=O)Nc1ccc(COc2ccc(C(F)(F)F)cc2Br)cc1C(=O)O [INV 7, 5-(2-Bromo-4-trifluoromethyl-phenoxymethyl)-2-propionylamino-benzoic acid] | – | 490 nM | 6.8 h | – |
| CCC(=O)Nc1ccc(COc2ccc(F)cc2Br)cc1C(=O)O [INV 8, 5-(2-Bromo-4-fluoro-phenoxymethyl)-2-propionylamino-benzoic acid] | – | 360 nM | 5.33 h | – |
| CCC(=O)Nc1ccc(COc2ccc(Cl)cc2Br)cc1C(=O)O [INV 9, 5-(2-Bromo-4-chloro-phenoxymethyl)-2-propionylamino-benzoic acid] | – | 240 nM | 2.8 h | – |
| CCC(=O)Nc1ccc(COc2ccc(OC(F)(F)F)cc2Cl)cc1C(=O)O [INV 10, 5-(2-Chloro-4-trifluoromethoxy-phenoxymethyl)-2-propionylamino-benzoic acid] | stable | 240 nM | – | – |
| CCC(=O)Nc1ccc(/C=C/c2ccc(C(F)(F)F)cc2C(F)(F)F)cc1C(=O)O [INV 11, 5-[(E)-2-(2,4-Bis-trifluoromethyl-phenyl)-vinyl]-2-propionylamino-benzoic acid] | – | 90 nM | 8.15 h | – |
| CCC(=O)Nc1ccc(/C=C/c2ccc(F)cc2C(F)(F)F)cc1C(=O)O [INV 12, 5-[(E)-2-(4-Fluoro-2-trifluoromethyl-phenyl)-vinyl]-2-propionylamino-benzoic acid] | – | 160 nM | 2.65 h | – |
| CCC(=O)Nc1ccc(/C=C/c2ccc(F)cc2F)cc1C(=O)O [INV 14, 5-[(E)-2-(2,4-Difluoro-phenyl)-vinyl]-2-propionylamino-benzoic acid] | – | 240 nM | 3.55 h | – |
| CCC(=O)Nc1ccc(/C=C/c2ccc(F)cc2Cl)cc1C(=O)O [INV 15, 5-[(E)-2-(2-Chloro-4-fluoro-phenyl)-vinyl]-2-propionylamino-benzoic acid] | – | 35 nM | 2.28 h | – |
| CCC(=O)Nc1ccc(/C=C/c2ccc(Cl)cc2Cl)cc1C(=O)O [INV 16, 5-[(E)-2-(2,4-Dichloro-phenyl)-vinyl]-2-propionylamino-benzoic acid] | – | 20 nM | 1.83 h | – |
| CCC(=O)Nc1ccc(COc2ccc(Br)c(Cl)c2)cc1C(=O)O [INV 20, 5-(4-Bromo-3-chloro-phenoxymethyl)-2-propionylamino-benzoic acid] | – | 730 nM | 1.2 h | – |
| CCC(=O)Nc1ccc(COc2ccc(OC(F)(F)F)c(Br)c2)cc1C(=O)O [INV 22, 5-(3-Bromo-4-trifluoromethoxy-phenoxymethyl)-2-propionylamino-benzoic acid] | – | 710 nM | 3.3 h | – |
| CCC(=O)Nc1ccc(/C=C/c2ccc(F)c(C(F)(F)F)c2)cc1C(=O)O [INV 23, 5-[(E)-2-(4-Fluoro-3-trifluoromethyl-phenyl)-vinyl]-2-propionylamino-benzoic acid] | – | 750 nM | 2.45 h | – |
| CCC(=O)Nc1ccc(/C=C/c2ccc(Cl)c(C(F)(F)F)c2)cc1C(=O)O [INV 24, 5-[(E)-2-(4-Chloro-3-trifluoromethyl-phenyl)-vinyl]-2-propionylamino-benzoic acid] | – | 570 nM | 5.75 h | – |
| CCC(=O)Nc1ccc(/C=C/c2ccc(C(F)(F)F)c(F)c2)cc1C(=O)O [INV 25, 5-[(E)-2-(3-Fluoro-4-trifluoromethyl-phenyl)-vinyl]-2-propionylamino-benzoic acid] | stable | 740 nM | – | – |
| CCC(=O)Nc1ccc(/C=C/c2ccc(F)c(Cl)c2)cc1C(=O)O [INV 26, 5-[(E)-2-(3-Chloro-4-fluoro-phenyl)-vinyl]-2-propionylamino-benzoic acid] | – | 750 nM | 1.22 h | – |
| CCC(=O)Nc1ccc(/C=C/c2ccc(Cl)c(Cl)c2)cc1C(=O)O [INV 27, 5-[(E)-2-(3,4-Dichloro-phenyl)-vinyl]-2-propionylamino-benzoic acid] | – | 480 nM | 1.92 h | – |
| CCC(=O)Nc1ccc(/C=C/c2ccc(OC(F)(F)F)c(Cl)c2)cc1C(=O)O [INV 28, 5-[(E)-2-(3-Chloro-4-trifluoromethoxy-phenyl)-vinyl]-2-propionylamino-benzoic acid] | – | 600 nM | – | – |
| COc1ccc(OC)c(CCc2ccc(NC(C)=O)c(C(=O)O)c2)c1 [REF 9, 2-acetylamino-5-[2-(2,5-dimethoxy-phenyl)-ethyl]-benzoic acid, reference compound] | – | 12000 nM | – | very weak inhibitory effect |

Continued, in another order:

| t1/2 [1] | IC50 [2] | half-life at 0.5 μM [1] | SMILES | inhibitory effect on T-cell proliferation (in words) ([2]; Jurkat, cf. Table 1) |
| --- | --- | --- | --- | --- |
| – | 580 nM | 3.93 h | CCC(=O)Nc1ccc(COc2ccc(F)cc2C(F)(F)F)cc1C(=O)O [INV 2, 5-(4-Fluoro-2-trifluoromethyl-phenoxymethyl)-2-propionylamino-benzoic acid] | – |
| – | 470 nM | 3.9 h | CCC(=O)Nc1ccc(COc2ccc(Br)cc2C(F)(F)F)cc1C(=O)O [INV 3, 5-(4-Bromo-2-trifluoromethyl-phenoxymethyl)-2-propionylamino-benzoic acid] | – |
| stable | 420 nM | – | CCC(=O)Nc1ccc(COc2ccc(C(F)(F)F)cc2Cl)cc1C(=O)O [INV 4, 5-(2-Chloro-4-trifluoromethyl-phenoxymethyl)-2-propionylamino-benzoic acid] | – |
| – | 50 nM | 1.75 h | CCC(=O)Nc1ccc(/C=C/c2ccc(Cl)cc2C(F)(F)F)cc1C(=O)O [INV 13, 5-[(E)-2-(4-Chloro-2-trifluoromethyl-phenyl)-vinyl]-2-propionylamino-benzoic acid] | – |
| – | 530 nM | 1.73 h | CCC(=O)Nc1ccc(COc2ccc(F)c(C(F)(F)F)c2)cc1C(=O)O [INV 17, 5-(4-Fluoro-3-trifluoromethyl-phenoxymethyl)-2-propionylamino-benzoic acid] | – |
| – | 840 nM | 7.73 h | CCC(=O)Nc1ccc(COc2ccc(Cl)c(C(F)(F)F)c2)cc1C(=O)O [INV 18, 5-(4-Chloro-3-trifluoromethyl-phenoxymethyl)-2-propionylamino-benzoic acid] | – |
| – | 420 nM | 1.18 h | CCC(=O)Nc1ccc(COc2ccc(F)c(Cl)c2)cc1C(=O)O [INV 19, 5-(3-Chloro-4-fluoro-phenoxymethyl)-2-propionylamino-benzoic acid] | – |
| – | 890 nM | 2.8 h | CCC(=O)Nc1ccc(COc2ccc(OC(F)(F)F)c(Cl)c2)cc1C(=O)O [INV 21, 5-(3-Chloro-4-trifluoromethoxy-phenoxymethyl)-2-propionylamino-benzoic acid] | – |
| – | 570 nM | 1.83 h | CCC(=O)Nc1ccc(OCc2ccc(Cl)cc2C(F)(F)F)cc1C(=O)O [INV 29, 5-(4-Chloro-2-trifluoromethyl-benzyloxy)-2-propionylamino-benzoic acid] | – |
| – | 590 nM | 3.18 h | CCC(=O)Nc1ccc(OCc2ccc(C(F)(F)F)cc2Br)cc1C(=O)O [INV 30, 5-(2-Bromo-4-trifluoromethyl-benzyloxy)-2-propionylamino-benzoic acid] | – |
| – | 420 nM | 3.87 h | O=C(O)c1cc(OCc2ccc(Br)cc2C(F)(F)F)ccc1NC(=O)C1CC1 [INV 31, 5-(4-Bromo-2-trifluoromethyl-benzyloxy)-2-(cyclopropanecarbonyl-amino)-benzoic acid] | – |
| – | 12300 nM | – | CCC(=O)Nc1ccc(OCc2ccccc2C(F)(F)F)cc1C(=O)OC [REF 10, 2-Propionylamino-5-(2-trifluoromethyl-benzyloxy)-benzoic acid methyl ester, reference compound] | – |
